Results as given in patent publication US10851102B2, “Imidazole and triazole containing bicyclic compounds as JAK inhibitors” (THERAVANCE BIOPHARMA R&D IP, LLC, priority 2019, dated 2020).

How the values were obtained:
[1] = target: JAK1 (Homo sapiens (Human), UniProt P23458); assay: Biochemical JAK and Tyk2 kinase assays (LanthaScreen): JAK1; details: 1 h pre-incubation, ATP at Km; pIC50 converted to pKi by Cheng-Prusoff
Outline: (§1)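 GST-tagged recombinant JAK enzymes with GFP-STAT1 peptide substrate in HEPES pH 7.5, MgCl2, EGTA buffer; compound pre-incubated 1 h, ATP-initiated reaction 1 h at ambient temperature. Tb-anti-pSTAT1 (pTyr701) TR-FRET readout (520/495 nm); IC50 from 4-parameter fit, converted to pKi via Cheng-Prusoff.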

[2] = target: JAK2 (Homo sapiens (Human), UniProt O60674); assay: Biochemical JAK and Tyk2 kinase assays (LanthaScreen): JAK2; details: 1 h pre-incubation, ATP at Km, pIC50 converted to pKi by Cheng-Prusoff; for Ki: read-out: JAK 2 (pKi) (converted)
JAK2, sequence (O60674 whole entry): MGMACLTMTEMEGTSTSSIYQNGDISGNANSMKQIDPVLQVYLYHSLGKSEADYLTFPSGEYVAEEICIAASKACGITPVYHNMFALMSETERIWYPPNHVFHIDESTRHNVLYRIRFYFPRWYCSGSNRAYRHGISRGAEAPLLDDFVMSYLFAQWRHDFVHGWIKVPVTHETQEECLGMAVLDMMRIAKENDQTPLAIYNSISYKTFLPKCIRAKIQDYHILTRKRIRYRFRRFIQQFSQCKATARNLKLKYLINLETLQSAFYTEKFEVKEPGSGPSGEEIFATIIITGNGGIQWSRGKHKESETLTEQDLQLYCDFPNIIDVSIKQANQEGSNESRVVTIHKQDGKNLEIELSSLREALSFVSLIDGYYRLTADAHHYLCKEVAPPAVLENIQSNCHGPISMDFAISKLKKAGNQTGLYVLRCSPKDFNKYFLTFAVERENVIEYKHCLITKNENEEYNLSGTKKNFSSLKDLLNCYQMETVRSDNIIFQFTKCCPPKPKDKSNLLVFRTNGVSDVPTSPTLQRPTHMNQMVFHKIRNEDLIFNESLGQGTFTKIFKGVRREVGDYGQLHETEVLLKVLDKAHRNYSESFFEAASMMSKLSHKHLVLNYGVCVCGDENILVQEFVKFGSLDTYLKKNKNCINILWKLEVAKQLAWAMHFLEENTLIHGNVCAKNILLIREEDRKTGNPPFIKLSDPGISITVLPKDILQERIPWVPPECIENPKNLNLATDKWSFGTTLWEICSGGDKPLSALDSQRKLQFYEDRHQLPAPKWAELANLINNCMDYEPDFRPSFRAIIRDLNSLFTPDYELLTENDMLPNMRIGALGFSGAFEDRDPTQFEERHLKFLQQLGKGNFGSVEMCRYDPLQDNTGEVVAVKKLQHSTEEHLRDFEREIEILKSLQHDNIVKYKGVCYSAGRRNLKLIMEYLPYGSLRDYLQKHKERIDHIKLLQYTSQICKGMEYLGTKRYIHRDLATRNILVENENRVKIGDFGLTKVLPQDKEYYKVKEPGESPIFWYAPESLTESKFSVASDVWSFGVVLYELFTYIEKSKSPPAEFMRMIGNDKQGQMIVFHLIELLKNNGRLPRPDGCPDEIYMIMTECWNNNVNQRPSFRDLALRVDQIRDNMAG
Description: (§2) Assay 1: Biochemical JAK and Tyk2 Kinase Assays
(§3) A panel of four LanthaScreen JAK biochemical assays (JAK1, 2, 3 and Tyk2) were carried in a common kinase reaction buffer (50 mM HEPES, pH 7.5, 0.01% Brij-35, 10 mM MgCl2, and 1 mM EGTA). Recombinant GST-tagged JAK enzymes and a GFP-tagged STAT1 peptide substrate were obtained from Life Technologies.
(§4) Serially or discretely diluted compounds were pre-incubated with each of the four JAK enzymes and the substrate in white 384-well microplates (Corning) at ambient temperature for 1 h. ATP was subsequently added to initiate the kinase reactions in 10 μL total volume, with 1% DMSO. […] Kinase reactions were allowed to proceed for 1 hour at ambient temperature before a 10 μL preparation of EDTA (10 mM final concentration) and Tb-anti-pSTAT1 (pTyr701) antibody (Life Technologies, 2 nM final concentration) in TR-FRET dilution buffer (Life Technologies) was added. The plates were allowed to incubate at ambient temperature for 1 h before being read on the EnVision reader (Perkin Elmer). Emission ratio signals (520 nm/495 nm) were recorded and utilized to calculate the percent inhibition values based on DMSO and background controls.
(§5) For dose-response analysis, percent inhibition data were plotted vs. compound concentrations, and IC50 values were determined from a 4-parameter robust fit model with the Prism software (GraphPad Software). Results were expressed as pIC50 (negative logarithm of IC50) and subsequently converted to pKi (negative logarithm of dissociation constant, Ki) using the Cheng-Prusoff equation.

[3] = target: JAK3 (Homo sapiens (Human), UniProt P52333); assay: Biochemical JAK and Tyk2 kinase assays (LanthaScreen): JAK3; details: for JAK 3 (pKi) / Ki: 1 h pre-incubation, ATP at Km, pIC50 converted to pKi by Cheng-Prusoff; for JAK3 (pKi)-JAK1 (pKi): difference of pKi values, selectivity JAK3 over JAK1; for Ki: read-out: JAK 3 (pKi) (converted)
JAK3, sequence (P52333 whole entry): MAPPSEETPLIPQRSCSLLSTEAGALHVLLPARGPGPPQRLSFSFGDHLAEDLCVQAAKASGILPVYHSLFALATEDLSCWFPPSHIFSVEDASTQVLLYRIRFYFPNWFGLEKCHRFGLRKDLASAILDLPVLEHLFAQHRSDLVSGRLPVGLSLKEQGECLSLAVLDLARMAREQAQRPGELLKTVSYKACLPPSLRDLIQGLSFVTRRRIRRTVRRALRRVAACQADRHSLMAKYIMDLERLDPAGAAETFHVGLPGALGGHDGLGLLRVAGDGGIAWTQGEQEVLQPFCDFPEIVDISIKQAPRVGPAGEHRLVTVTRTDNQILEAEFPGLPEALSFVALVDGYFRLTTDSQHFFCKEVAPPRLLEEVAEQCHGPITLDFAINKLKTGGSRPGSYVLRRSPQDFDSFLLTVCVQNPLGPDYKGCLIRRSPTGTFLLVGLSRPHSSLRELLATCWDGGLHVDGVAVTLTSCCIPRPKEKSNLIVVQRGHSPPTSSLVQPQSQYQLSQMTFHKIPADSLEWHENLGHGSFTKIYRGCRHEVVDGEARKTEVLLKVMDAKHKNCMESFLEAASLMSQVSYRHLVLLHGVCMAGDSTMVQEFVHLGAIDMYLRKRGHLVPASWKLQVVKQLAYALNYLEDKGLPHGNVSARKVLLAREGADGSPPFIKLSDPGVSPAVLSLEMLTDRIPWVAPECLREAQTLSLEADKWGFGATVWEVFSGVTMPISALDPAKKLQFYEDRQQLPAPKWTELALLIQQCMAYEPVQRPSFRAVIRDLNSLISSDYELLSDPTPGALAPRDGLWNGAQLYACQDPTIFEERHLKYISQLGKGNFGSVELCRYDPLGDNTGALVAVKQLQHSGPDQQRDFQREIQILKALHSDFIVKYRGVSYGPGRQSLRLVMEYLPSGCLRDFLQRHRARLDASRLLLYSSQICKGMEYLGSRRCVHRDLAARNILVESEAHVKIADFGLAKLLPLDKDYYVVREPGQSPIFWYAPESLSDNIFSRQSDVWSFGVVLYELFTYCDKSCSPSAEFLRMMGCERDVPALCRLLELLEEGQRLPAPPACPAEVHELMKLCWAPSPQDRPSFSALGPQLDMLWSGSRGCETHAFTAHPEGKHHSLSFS
Outline: as §1

[4] = target: Tyk2 (Homo sapiens (Human), UniProt P29597); assay: Biochemical JAK and Tyk2 kinase assays (LanthaScreen): Tyk2; details: 1 h pre-incubation, ATP at Km; pIC50 converted to pKi by Cheng-Prusoff
Tyk2, sequence (P29597 whole entry): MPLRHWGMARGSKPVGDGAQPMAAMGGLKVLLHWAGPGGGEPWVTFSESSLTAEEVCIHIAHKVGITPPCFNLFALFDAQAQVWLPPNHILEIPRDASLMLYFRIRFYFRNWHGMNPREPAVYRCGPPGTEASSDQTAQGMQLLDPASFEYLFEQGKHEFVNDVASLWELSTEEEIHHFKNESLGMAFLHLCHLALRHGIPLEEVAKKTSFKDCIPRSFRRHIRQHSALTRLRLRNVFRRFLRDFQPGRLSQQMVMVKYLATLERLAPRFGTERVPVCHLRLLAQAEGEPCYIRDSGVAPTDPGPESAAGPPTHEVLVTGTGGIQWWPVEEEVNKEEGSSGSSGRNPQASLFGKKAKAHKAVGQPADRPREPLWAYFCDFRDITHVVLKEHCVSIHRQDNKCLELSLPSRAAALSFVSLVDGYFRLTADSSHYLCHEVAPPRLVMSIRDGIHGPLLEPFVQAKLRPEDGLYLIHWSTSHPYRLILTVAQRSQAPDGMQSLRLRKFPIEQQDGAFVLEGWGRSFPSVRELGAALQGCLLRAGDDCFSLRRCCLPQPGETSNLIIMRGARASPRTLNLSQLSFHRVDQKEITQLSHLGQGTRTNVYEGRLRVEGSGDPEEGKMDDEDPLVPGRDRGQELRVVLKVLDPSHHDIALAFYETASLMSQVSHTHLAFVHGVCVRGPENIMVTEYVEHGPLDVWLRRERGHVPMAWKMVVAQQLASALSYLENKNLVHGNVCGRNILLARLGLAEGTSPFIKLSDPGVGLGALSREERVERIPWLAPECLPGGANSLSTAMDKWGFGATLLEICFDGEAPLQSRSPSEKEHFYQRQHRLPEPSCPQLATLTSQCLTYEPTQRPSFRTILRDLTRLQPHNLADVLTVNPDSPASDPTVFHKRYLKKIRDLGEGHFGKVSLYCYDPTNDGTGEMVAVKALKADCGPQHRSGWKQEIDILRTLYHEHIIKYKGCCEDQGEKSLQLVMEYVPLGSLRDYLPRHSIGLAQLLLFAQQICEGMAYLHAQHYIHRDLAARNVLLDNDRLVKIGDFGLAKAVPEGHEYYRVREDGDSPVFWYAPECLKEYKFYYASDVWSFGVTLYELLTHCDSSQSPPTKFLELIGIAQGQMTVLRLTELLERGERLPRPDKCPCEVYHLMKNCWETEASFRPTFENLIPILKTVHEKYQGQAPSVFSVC
Description: as §2, §3, §4, §5

[5] = system: IL-2 stimulated pSTAT5 in Tall-1 T cells (JAK3); assay: Cellular JAK3 potency assay: inhibition of IL-2 stimulated pSTAT5 in Tall-1 T cells; type: cell-based; details: IL-2 300 ng/ml, pSTAT5 AlphaLisa, Tall-1 human T cell line; read-out: Tall-1 (pIC50) (converted)
Outline: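 Human Tall-1 T cells (45,000/well) preincubated with compound 1 h at 37 °C, then stimulated with IL-2 (final 300 ng/ml) for 30 min. Lysates read for pSTAT5 (Tyr694/699) by AlphaLISA luminescence. IC50 from signal-versus-concentration curves, reported as pIC50 (mean±SD).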

[6] = system: IL-2 stimulated pSTAT5 in CD4+ T cells isolated from murine splenocytes (JAK3); assay: Inhibition of IL-2 stimulated pSTAT5 in CD4+ T cells isolated from murine splenocytes; type: cell-based; details: Mus musculus, IL-2 7 ng/ml, read-out: pIC50, inhibition of IL-2 stimulated pSTAT5 (converted)
Description: Assay 3: Inhibition of IL-2 Stimulated pSTAT5 in CD4+ T Cells Isolated from Murine Splenocytes
The potency of test compounds for inhibition of interleukin-2 (IL-2) stimulated STATS phosphorylation was measured in the CD4+ T cells isolated from murine splenocytes using AlphaLisa. Because IL-2 signals through JAK3, this assay provides a measure of JAK3 cellular potency in mouse.
Phosphorylated STATS was measured via the AlphaLISA SureFire Ultra pSTAT5 (Tyr694/699) kit (PerkinElmer).
CD4+ T cells were isolated from murine splenocytes via negative selection on a magnetic column (Miltnyi Biotec) and re-suspended in assay media (phenol red-free DMEM (Life Technologies) supplemented with 10% FBS (ATCC)). Cells were seeded at 50,000 cells/well in assay media (2 μL/well). Compounds were serially diluted in DMSO and diluted to 2× final concentration in assay media. Compound was added (4 μl/well) and the cells incubated at 37° C., 5% CO2 for 1 hour, followed by the addition of IL-2 (R&D Systems; final concentration 7 ng/ml) in pre-warmed assay media (2 μL) for 30 minutes. After cytokine stimulation, cells were lysed with 2 μl of 5× AlphaLisa Lysis Buffer (PerkinElmer). The lysate was shaken at 900 rpm for 10 minutes at room temperature (RT). Phosphorylated STATS was measured via the pSTAT5 AlphaLisa kit (PerkinElmer). Freshly prepared acceptor bead mixture was dispensed onto lysate (5 ul) under green filtered <100 lux light. Plates were shaken at 900 rpm for 2 mins, briefly spun down, and incubated for 2 hrs at RT in the dark. Donor beads were dispensed (5 μl) under green filtered <100 lux light. Plates were shaken at 900 rpm for 2 mins, briefly spun down, and incubated overnight at RT in the dark. Luminescence was measured with excitation at 689 nm and emission at 570 nm using an EnVision plate reader (PerkinElmer) under green filtered <100 lux light.
To determine the inhibitory potency of test compounds in response to IL-2, the average emission intensity of beads bound to pSTATS was measured in primary CD4+ T cells isolated from murine splenocytes. IC50 values were determined from analysis of the inhibition curves of signal intensity vs compound concentration. Data are expressed as pIC50 (negative decadic logarithm IC50) values (mean±standard deviation).

[7] = Colon and plasma mouse pharmacokinetics; type: in vivo; details: ratio of colon AUC to plasma AUC, male Balb/c mice, 10 mg/kg PO; for Kp: mouse
Description: Assay 6: Colon and Plasma Mouse Pharmacokinetics
6 male Balb/c mice were administered 10 mg/kg of compound in 1% HPMC+0.1% Tween-80 by PO administration. At 0.5, 2 and 6 hours after dose administration, animals were anesthetized, and terminal blood samples were collected by cardiac puncture, followed by collection of colon contents and colon tissue.
Blood samples were collected into K2EDTA and stored on wet ice until processed to plasma by centrifugation (12,000 rpm at 4° C.). Plasma samples were transferred to cluster tubes and placed on dry ice prior to freezer storage. The colon contents from each animal were collected at each terminal blood collection time point. The colon tissues were flushed with saline and patted dry. The colon and colon content tissues were homogenized using sterile water containing 0.1% formic acid 9:1 (water:tissue, v/w). The homogenized tissues and colon contents were transferred to cluster tubes and placed on dry ice prior to freezer storage. All samples were analyzed using LC/MS/MS against analytical standards.
The composite pharmacokinetic parameters of the compounds were determined by non-compartmental analysis using Phoenix WinNonlin Version 6 (Certara, St. Louis, Mo.) and using mean values from 2 animals/time point. For plasma concentrations below the quantification limit (BQL), the lowest concentration measurable or the BLOQ (below limit of quantification) was used.
A colon to plasma ratio was determined as the ratio of the colon AUC to the plasma AUC.

[8] = system: Caco-2 cell monolayers; assay: Caco-2 permeation assay; type: in vitro ADME, human; details: for Caco Kp 10^−6 cm/sec: 5 μM, A to B, + Verapamil 25 μM, 120 minutes
Excerpt: Assay 5: Caco-2 Permeation Assay

JAK1, sequence (P23458 whole entry): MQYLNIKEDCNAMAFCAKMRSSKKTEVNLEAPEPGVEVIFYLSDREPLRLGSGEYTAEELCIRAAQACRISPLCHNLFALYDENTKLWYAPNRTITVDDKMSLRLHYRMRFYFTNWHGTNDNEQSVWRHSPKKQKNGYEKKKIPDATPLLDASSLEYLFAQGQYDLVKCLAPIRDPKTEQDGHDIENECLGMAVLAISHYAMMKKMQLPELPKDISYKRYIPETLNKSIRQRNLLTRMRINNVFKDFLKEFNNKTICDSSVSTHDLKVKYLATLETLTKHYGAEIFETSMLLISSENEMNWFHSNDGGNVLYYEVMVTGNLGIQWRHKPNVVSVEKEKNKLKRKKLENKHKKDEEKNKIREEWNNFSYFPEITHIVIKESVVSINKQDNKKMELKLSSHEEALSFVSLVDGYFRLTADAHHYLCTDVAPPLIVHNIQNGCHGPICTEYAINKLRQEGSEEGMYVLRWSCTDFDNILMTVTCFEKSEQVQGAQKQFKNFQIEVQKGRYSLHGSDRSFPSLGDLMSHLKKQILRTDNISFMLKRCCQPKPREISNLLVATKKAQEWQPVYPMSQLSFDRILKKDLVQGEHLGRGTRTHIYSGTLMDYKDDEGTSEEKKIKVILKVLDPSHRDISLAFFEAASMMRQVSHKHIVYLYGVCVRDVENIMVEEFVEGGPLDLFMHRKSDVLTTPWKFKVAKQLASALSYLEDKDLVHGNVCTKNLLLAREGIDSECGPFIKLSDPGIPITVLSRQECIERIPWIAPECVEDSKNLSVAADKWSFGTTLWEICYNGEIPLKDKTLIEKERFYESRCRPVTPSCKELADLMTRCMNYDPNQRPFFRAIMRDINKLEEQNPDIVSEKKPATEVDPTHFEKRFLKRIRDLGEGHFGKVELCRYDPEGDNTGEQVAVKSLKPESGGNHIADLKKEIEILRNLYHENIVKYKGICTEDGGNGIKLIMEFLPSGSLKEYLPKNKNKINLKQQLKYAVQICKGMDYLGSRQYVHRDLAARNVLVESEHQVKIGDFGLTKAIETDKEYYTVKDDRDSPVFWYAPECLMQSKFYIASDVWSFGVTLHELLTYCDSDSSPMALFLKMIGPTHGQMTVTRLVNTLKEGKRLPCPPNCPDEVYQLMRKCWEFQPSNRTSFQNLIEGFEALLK

| Structure (SMILES) | JAK 1 (pKi) [1] | Ki [2] | JAK 3 (pKi) [3] | JAK3 (pKi)-JAK1 (pKi) [3] | Tyk 2 (pKi) [4] | IC50 [5] | IC50 [6] | Kp [7] | JAK 2 (pKi) [2] | Caco Kp 10^−6 cm/sec [8] | Ki [1] | Ki [3] | Kp value ([8]; A to B + Verapamil, unit not given, thresholds in same block in 10^−6 cm/sec) | colon to plasma ratio [7] |
| --- | --- | --- | --- | --- | --- | --- | --- | --- | --- | --- | --- | --- | --- | --- |
| C=CC(=O)N1CC[C@@H](Oc2cc(-c3ccc(O)cc3)cn3cncc23)C[C@H]1C [Example 15, 1-((2R,4R)-4-((6-(4-hydroxyphenyl)imidazo[1,5-a]pyridin-8-yl)oxy)-2-methylpiperidin-1-yl)prop-2-en-1-one] | E (E represents a pKi value of 7 or below (Ki of 100 nM or above)) | 10 to 100 nM | A (A represents a pKi value≥10 (Ki≤0.1 nM)) | A (A represents a value of 3 or above) | E (E represents a pKi value of 7 or below (Ki of 100 nM or above)) | ≤ 31.6 nM | < 1000 nM | > 30 |  |  |  |  |  |  |
| CCc1cc(O)c(F)cc1-c1cc(OCC2CN(C(=O)/C=C/CN(C)C)C2)c2cncn2c1 [Example 24] | E (E represents a pKi value of 7 or below (Ki of 100 nM or above)) |  | A (A represents a pKi value≥10 (Ki≤0.1 nM)) | A (A represents a value of 3 or above) | E (E represents a pKi value of 7 or below (Ki of 100 nM or above)) | 31.6 to 200 nM | < 1000 nM | > 200 | E (E represents a pKi value of 7 or below (Ki of 100 nM or above)) | A (A represents a value below 5×10^−6 cm/sec) |  |  |  |  |
| C=CC(=O)N1CCC[C@H](Oc2cc(-c3cc(F)c(O)cc3CC)cn3cncc23)C1 [Example 16] |  | 10 to 100 nM |  | B (B represents a value of 2.3 to 3) | E (E represents a pKi value of 7 or below (Ki of 100 nM or above)) | 31.6 to 200 nM |  | > 200 |  | C (C represents a value between 10×10^−6 and 25×10^−6 cm/sec) | 10 to 100 nM | 0.1 to 1 nM |  |  |
| C=CC(=O)N1CCC(Oc2cc(-c3ccc(O)cc3)cn3cncc23)CC1 [Example 30] | E (E represents a pKi value of 7 or below (Ki of 100 nM or above)) |  | A (A represents a pKi value≥10 (Ki≤0.1 nM)) | A (A represents a value of 3 or above) | E (E represents a pKi value of 7 or below (Ki of 100 nM or above)) | 31.6 to 200 nM |  | > 8 | E (E represents a pKi value of 7 or below (Ki of 100 nM or above)) | C (C represents a value between 10×10^−6 and 25×10^−6 cm/sec) |  |  |  |  |
| C=CC(=O)N1CC(COc2cc(-c3cc(F)c(O)c(Cl)c3)cn3cncc23)C1 [Example 31] | E (E represents a pKi value of 7 or below (Ki of 100 nM or above)) |  | A (A represents a pKi value≥10 (Ki≤0.1 nM)) | A (A represents a value of 3 or above) | E (E represents a pKi value of 7 or below (Ki of 100 nM or above)) | 31.6 to 200 nM | < 1000 nM |  | E (E represents a pKi value of 7 or below (Ki of 100 nM or above)) | A (A represents a value below 5×10^−6 cm/sec) |  |  |  |  |
| C=CC(=O)N1CC(COc2cc(-c3ccc(O)cc3)cn3cncc23)C1 [Example 11, 1-(3-(((6-(4-hydroxyphenyl)imidazo[1,5-a]pyridin-8-yl)oxy)methyl)azetidin-1-yl)prop-2-en-1-one] | E (E represents a pKi value of 7 or below (Ki of 100 nM or above)) |  |  | A (A represents a value of 3 or above) | E (E represents a pKi value of 7 or below (Ki of 100 nM or above)) | 31.6 to 200 nM | < 1000 nM |  | E (E represents a pKi value of 7 or below (Ki of 100 nM or above)) | A (A represents a value below 5×10^−6 cm/sec) |  | 0.1 to 1 nM |  |  |
| C=CC(=O)N1CC(COc2cc(-c3ccc(O)c(F)c3F)cn3cncc23)C1 [Example 8, 1-(3-(((6-(2,3-difluoro-4-hydroxyphenyl)imidazo[1,5-a]pyridin-8-yl)oxy)methyl)azetidin-1-yl)prop-2-en-1-one] | E (E represents a pKi value of 7 or below (Ki of 100 nM or above)) |  | A (A represents a pKi value≥10 (Ki≤0.1 nM)) | A (A represents a value of 3 or above) | E (E represents a pKi value of 7 or below (Ki of 100 nM or above)) | 31.6 to 200 nM | < 1000 nM |  | E (E represents a pKi value of 7 or below (Ki of 100 nM or above)) | B (B represents a value between 5×10^−6 and 10×10^−6 cm/sec) |  |  |  |  |
| C=CC(=O)N1C[C@H](Nc2ncnc3[nH]ccc23)CC[C@@H]1C [PF-06651600, 2-propen-1-one, 1-[(2S,5R)-2-methyl-5-(7H-pyrrolo[2,3-d]pyrimidin-4-ylamino)-1-piperidinyl], reference compound] |  |  |  |  |  |  |  |  |  |  |  |  | 25 | 2.8 |
